These results are taken from US9216247B2, “Buffered compositions for dialysis” (Advanced Renal Technologies, priority 1998, dated 2015).

The structures appear in SMILES notation. Where two headings read alike, the source gives them in different places.

Data set [1] relates to coagulation behavior of blood. The data set is described as follows: clotting time of patients dialysed with citric acid dialysate. Type of data set: in vivo. Conditions: 2.4 mEq/L of citric acid in dialysate; beyond that achieved with heparin.

Consider `O=C(O)CC(O)(CC(=O)O)C(=O)O` [citric acid, Citric acid], for which the “increase in patient's clotting time” value in data set [1] is recorded as “no measurable increase”. Turning to `CC(=O)[O-].[Na+]` [sodium acetate], the buffering action entry is reported as “evident” (bicarbonate concentrate solutions of 8.1<pH<8.3) and “not apparent” (bicarbonate concentrate solutions with a pH of <8.0).
